From article PMC4755756, “Catalysis-dependent selenium incorporation and migration in the nitrogenase active site iron-molybdenum cofactor” (eLife, 2015)

Experiments:
[1] = biological target: T1, nitrogenase MoFe-protein (Av1) (Azotobacter vinelandii, UniProt P07328); assay: inhibition of acetylene reduction, Dixon plot (gas chromatography); assay type: biochemical
T1 construct: gene nifD; purified Av1, (αβ)2 tetramer, with Av2; with MoFe-protein β subunit (NifK); Fe-protein (Av2)

[2] = biological target: T1, nitrogenase MoFe-protein (Av1); assay: inhibition of acetylene reduction, Dixon plot (gas chromatography); Se incorporation seen by crystallography; assay type: biochemical
Source text: inhibition of acetylene reduction, Dixon plot (gas chromatography); Se incorporation seen by crystallography on nitrogenase MoFe-protein (Av1) | SeCN^- is a potent, yet reversible inhibitor of acetylene reduction

Question: For N#CS [thiocyanate], which Ki [1] is on record?
Answer: The Ki was 12.7 ± 1.2 mM.

Question: For N#C[SeH] [selenocyanate], which Ki [2] is on record?
Answer: The Ki was 0.41 ± 0.03 mM.
